Assay results from publication doi:10.1101/662718v1 (biorxiv, 2019).

What was measured:
[1] = molecular target: T1, huATCase (Homo sapiens, UniProt P27708); test: colorimetric ATCase activity assay, dose-response fit; format: biochemical
T1 sequence (P27708 1915-2225 limits assumed): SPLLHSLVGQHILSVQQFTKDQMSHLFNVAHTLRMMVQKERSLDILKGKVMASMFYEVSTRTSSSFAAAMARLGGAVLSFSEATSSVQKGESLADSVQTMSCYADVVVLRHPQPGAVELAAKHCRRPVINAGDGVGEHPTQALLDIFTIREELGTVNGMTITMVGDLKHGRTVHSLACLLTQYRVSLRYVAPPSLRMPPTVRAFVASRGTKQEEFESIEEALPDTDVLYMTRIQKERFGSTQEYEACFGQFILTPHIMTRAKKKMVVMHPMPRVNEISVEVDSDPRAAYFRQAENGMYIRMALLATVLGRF

[2] = molecular target: T2, ecATCase (Escherichia coli, UniProt P0A786); test: as above; format: biochemical
T2 sequence (P0A786 2-311): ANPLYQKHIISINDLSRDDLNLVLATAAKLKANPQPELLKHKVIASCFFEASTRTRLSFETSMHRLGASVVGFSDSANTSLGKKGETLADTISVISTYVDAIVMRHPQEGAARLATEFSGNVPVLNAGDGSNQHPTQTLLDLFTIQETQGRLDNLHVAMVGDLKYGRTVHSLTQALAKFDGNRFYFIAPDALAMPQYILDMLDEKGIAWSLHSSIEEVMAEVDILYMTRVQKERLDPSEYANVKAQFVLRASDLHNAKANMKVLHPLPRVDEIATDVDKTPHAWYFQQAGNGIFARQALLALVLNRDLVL

[3] = molecular target: T2, ecATCase; test: ITC; format: binding; conditions: 50 mM Tris-acetate pH 8.3, no Asp

| IC50 [1] [µM] | IC50 [2] [µM] | KD [3] | Compound |
| --- | --- | --- | --- |
| 15.4 ± 1.6 | 5 ± 1.4 | – | CC(C(=O)Oc1ccc(C2C3=C(Nc4[nH]c(=O)n(C)c(=O)c42)c2ccccc2C3=O)cc1)N1C(=O)c2ccccc2C1=O (centres unmarked) [YD21] |
| – | – | all ATCase variants were able to bind CP | NC(=O)OP(=O)(O)O [CP] |
| 4.1 ± 1.9 | 1.8 ± 0.4 | – | O=c1[nH]c2ccc(Nc3nc4nonc4nc3N/N=C/c3ccccc3OCc3ccc(Cl)cc3Cl)cc2[nH]1 [YD19] |
